Source: US11274100B2, “EP300/CREBBP inhibitor” (Daiichi Sankyo Company, Limited, priority 2017, dated 2022)

Columns and labels:
EP300 = EP300 (Homo sapiens, UniProt Q09472); experiment: Histone acetyltransferase inhibitory activity against EP300 (Test Example 1); type: biochemical; conditions: 50 ng/mL EP300, 2 μM Acetyl-CoA, 100 nM Histone H4(1-25)-GSGSK (Biotin), 28° C. for 1 hour
Procedure, shortened: (§1)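 Enzyme (50 ng/mL EP300 or 125 ng/mL CREBBP) incubated 1 h at 28° C with 2 μM acetyl-CoA, 100 nM biotinylated histone H4(1-25) peptide and 10 to 0.0006 μM compound in pH 8.0 Tris buffer with 330 nM trichostatin A, 1% DMSO. Reaction stopped with Lys-CoA; acetylation read by TR-FRET (Eu-anti pan-Ac/Sta-ULight) after overnight room-temperature incubation.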

CREBBP = CREBBP (Homo sapiens, UniProt Q92793); experiment: Histone acetyltransferase inhibitory activity against CREBBP (Test Example 1); type: biochemical; conditions: 125 ng/mL CREBBP, 2 μM Acetyl-CoA, 100 nM Histone H4(1-25)-GSGSK (Biotin), 28° C. for 1 hour
CREBBP, sequence (Q92793 whole entry): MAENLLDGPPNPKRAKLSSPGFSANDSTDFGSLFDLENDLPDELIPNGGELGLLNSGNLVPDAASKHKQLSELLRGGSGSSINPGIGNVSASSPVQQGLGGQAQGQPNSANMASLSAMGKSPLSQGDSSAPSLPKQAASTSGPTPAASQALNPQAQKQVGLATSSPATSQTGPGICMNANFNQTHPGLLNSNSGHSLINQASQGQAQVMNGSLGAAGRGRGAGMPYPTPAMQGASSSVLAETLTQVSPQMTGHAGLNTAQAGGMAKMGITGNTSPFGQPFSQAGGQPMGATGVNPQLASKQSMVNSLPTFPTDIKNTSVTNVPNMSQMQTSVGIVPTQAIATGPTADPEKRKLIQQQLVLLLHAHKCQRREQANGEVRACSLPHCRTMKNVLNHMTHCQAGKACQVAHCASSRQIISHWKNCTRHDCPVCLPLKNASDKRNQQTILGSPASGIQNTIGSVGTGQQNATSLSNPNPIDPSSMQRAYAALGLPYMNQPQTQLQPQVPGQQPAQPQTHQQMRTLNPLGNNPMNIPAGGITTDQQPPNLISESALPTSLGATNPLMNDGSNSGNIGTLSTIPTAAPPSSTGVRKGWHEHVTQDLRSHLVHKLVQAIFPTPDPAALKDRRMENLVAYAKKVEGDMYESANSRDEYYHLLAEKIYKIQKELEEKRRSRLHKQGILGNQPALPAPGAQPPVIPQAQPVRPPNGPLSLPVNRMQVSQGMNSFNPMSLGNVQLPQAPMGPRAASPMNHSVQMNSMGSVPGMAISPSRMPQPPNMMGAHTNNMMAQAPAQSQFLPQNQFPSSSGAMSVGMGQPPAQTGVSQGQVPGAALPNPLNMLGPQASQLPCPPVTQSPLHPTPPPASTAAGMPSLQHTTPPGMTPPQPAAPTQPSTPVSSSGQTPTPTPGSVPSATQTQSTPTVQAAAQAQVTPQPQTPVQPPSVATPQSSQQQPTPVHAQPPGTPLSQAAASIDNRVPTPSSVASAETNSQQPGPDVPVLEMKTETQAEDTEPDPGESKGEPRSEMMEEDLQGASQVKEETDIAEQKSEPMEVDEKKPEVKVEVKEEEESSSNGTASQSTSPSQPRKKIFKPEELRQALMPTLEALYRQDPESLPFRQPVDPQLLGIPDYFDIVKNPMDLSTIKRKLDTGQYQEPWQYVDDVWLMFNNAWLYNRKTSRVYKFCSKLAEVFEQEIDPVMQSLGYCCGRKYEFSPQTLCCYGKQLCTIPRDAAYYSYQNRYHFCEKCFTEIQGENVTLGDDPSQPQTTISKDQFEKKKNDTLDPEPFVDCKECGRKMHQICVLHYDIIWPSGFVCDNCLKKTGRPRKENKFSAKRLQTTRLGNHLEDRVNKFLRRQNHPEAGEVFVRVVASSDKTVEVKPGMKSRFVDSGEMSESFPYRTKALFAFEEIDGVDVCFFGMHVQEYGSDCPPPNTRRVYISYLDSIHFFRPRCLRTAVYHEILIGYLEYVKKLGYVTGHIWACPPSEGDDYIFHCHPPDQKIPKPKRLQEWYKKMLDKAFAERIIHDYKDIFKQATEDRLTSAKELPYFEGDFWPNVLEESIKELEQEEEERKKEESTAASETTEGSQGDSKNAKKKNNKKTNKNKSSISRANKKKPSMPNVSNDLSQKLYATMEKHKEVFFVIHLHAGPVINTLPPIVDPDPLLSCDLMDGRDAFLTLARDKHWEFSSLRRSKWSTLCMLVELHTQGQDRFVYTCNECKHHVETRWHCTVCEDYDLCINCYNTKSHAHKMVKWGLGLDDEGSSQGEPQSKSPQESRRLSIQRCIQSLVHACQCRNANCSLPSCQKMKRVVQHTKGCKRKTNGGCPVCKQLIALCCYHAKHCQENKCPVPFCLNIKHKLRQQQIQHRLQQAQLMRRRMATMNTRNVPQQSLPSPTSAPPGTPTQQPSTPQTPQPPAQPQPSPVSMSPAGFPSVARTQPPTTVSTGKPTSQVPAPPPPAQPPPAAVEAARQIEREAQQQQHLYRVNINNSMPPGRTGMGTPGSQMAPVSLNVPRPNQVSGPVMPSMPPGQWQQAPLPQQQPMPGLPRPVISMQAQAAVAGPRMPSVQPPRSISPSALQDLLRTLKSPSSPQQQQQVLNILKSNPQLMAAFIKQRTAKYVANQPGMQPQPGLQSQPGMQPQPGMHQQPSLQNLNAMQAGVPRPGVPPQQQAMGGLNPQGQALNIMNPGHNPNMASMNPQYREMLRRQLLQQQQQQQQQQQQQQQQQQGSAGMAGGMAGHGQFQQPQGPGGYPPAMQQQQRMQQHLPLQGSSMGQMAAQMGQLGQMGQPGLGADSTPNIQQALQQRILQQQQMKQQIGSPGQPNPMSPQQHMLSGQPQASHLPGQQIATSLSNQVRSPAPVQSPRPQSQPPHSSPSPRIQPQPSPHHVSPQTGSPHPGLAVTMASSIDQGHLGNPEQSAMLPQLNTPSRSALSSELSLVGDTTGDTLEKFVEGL
Procedure, shortened: as §1

TE-8 cells = experiment: Cell growth inhibitory activity, TE-8 cells (Test Example 3); type: cell-based; conditions: Homo sapiens, 72 h, cultured for 3 days, CellTiter-Glo
Method: (§2) [Test Example 3] Evaluation of Cell Growth Inhibitory Activity
(§3) As a culture medium for each cell, a 10% FBS supplemented RPMI 1640 medium (for LK2 cells and TE-8 cells derived from human esophageal cancer) was used. LK2 cells were purchased from Human Science Research Resources Bank, and TE-8 cells were purchased from Riken Cell Bank. The compound of each of Examples 1 to 108b was prepared by dilution with Freedom EVO 150 (Tecan Trading AG) (4-fold diluted, 10 stages, 10 mM to 38 nM). The resultant was added to respective wells of a 384-well plate in an amount of 40 nL/well using Echo 555 (Labcyte Inc.). The LK2 or TE-8 cells were seeded in the plate at 400 cells/40 μL/well (day 0), and were cultured for 3 days. On the day of addition of the compound (day 0) and 3 days after the addition of the compound (day 3), an ATP measurement reagent of CellTiter-Glo (registered trademark) 2.0 Assay (Promega Corporation, #G9242) was added to each well in an amount of 10 μL/well, and the amount of luminescence of each well was measured using EnVision. Based on the amount of luminescence (C0) on the day of the addition of the compound, and the amounts of luminescence of a compound non-addition group (C3) and a compound addition group (T3) obtained after the 3-day culture of the compound, a cell survival rate was calculated in accordance with the following expression: Cell survival rate (%)=(T3−C0)/(C3−C0)×100
(§4) A concentration (GI50 value) of each compound at which the growth of the TE-8 or LK-2 cells was inhibited by 50% was calculated by semilogarithmically plotting the cell survival rate at each concentration and the compound concentration.

LK2 cells = experiment: Cell growth inhibitory activity, LK2 cells (Test Example 3); type: cell-based; conditions: Homo sapiens, LK-2, 72 h, cultured for 3 days, CellTiter-Glo
Method: as §2, §3, §4

H3K27Ac = experiment: Intracellular H3K27Ac inhibitory activity in LK2 cells (Test Example 2); type: cell-based; conditions: Homo sapiens, LK-2, cultured with compound for 3 hours, read-out: Test Example 2 H3K27Ac Inhibition (LK2) IC50
Procedure, shortened: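 Human squamous lung cancer LK2 cells (40000/well) cultured overnight at 37 °C, 5% CO2 before treatment. After paraformaldehyde fixation, peroxide quench and blocking, H3K27 acetylation detected with anti-acetyl-H3K27 rabbit mAb (4 °C overnight) and HRP secondary; chemiluminescent read-out.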

EP300, sequence (Q09472 whole entry): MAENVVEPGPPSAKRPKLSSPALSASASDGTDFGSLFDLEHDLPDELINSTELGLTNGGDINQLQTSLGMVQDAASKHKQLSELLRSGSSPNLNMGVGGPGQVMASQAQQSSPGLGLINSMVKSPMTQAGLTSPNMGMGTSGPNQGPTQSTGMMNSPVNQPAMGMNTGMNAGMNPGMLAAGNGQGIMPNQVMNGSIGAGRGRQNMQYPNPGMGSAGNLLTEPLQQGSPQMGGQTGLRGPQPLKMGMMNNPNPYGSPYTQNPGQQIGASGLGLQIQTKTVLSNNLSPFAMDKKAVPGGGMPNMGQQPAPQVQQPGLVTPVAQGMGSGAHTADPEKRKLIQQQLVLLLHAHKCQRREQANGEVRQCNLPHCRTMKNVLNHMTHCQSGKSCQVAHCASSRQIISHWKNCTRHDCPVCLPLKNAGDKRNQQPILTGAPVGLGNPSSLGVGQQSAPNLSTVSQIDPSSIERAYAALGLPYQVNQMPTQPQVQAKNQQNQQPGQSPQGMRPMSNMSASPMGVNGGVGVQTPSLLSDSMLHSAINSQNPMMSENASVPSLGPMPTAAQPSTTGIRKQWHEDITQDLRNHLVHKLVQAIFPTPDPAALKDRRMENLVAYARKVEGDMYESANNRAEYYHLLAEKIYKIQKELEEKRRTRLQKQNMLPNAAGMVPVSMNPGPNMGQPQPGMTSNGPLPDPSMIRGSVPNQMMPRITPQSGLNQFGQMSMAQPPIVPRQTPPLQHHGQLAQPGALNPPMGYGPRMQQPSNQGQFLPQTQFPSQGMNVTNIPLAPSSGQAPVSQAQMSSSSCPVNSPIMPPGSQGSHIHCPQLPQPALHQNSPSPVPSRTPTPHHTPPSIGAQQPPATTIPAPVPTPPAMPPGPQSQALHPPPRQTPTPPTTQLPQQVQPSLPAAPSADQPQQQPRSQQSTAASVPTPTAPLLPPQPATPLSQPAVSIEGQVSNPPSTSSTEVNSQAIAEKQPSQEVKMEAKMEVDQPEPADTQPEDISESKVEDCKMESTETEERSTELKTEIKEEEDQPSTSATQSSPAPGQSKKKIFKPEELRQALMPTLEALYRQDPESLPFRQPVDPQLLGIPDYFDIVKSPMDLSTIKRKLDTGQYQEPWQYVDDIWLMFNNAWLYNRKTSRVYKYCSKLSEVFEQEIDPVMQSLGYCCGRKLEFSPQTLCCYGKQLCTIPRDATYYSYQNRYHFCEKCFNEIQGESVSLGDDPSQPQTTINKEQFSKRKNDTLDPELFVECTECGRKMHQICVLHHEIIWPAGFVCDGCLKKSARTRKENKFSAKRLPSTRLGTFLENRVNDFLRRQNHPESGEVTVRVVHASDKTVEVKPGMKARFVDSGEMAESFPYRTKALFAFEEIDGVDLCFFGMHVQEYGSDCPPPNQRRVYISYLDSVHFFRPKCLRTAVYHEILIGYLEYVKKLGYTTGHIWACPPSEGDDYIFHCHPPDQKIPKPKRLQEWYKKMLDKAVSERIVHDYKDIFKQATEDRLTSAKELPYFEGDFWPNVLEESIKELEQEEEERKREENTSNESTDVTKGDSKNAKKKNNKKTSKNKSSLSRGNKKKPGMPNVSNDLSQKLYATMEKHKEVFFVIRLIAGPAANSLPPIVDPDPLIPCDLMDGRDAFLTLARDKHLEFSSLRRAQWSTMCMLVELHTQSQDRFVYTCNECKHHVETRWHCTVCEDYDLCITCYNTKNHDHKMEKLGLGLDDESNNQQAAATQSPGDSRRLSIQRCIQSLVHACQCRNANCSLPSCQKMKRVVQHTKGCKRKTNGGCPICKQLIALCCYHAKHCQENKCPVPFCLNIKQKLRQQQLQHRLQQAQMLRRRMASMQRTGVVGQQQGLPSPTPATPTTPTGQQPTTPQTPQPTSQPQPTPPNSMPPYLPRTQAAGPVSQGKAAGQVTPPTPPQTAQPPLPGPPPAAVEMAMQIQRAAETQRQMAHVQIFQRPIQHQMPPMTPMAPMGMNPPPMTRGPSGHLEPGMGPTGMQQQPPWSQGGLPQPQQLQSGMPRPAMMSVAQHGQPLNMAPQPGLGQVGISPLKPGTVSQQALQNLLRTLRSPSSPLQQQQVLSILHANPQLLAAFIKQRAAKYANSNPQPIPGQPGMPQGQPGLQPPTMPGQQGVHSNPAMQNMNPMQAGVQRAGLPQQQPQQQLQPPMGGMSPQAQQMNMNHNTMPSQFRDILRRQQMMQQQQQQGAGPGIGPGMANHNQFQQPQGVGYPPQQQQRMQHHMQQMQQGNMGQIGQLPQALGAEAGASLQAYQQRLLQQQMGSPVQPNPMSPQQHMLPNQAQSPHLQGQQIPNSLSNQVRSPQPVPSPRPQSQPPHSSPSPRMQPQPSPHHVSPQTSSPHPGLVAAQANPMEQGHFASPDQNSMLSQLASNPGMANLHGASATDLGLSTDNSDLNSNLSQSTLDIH

In the case of `COc1ccc(C2(C(=O)N3CCC[C@@H]3C(=O)Nc3cccc4[nH]ncc34)CCCCCC2)cc1` [Example 54], the IC50 (EP300) is reported as 126 nM, the IC50 (CREBBP) is reported as 201 nM and the GI50 (TE-8 cells) is reported as 4480 nM. The GI50 (LK2 cells) was 2970 nM and the IC50 (H3K27Ac) was 920 nM.

In the case of `COc1ccc(C2(C(=O)N(C)[C@@H](C(=O)Nc3ccc4[nH]ncc4n3)[C@@H](C)O)CCC(F)(F)CC2)cc1` [Example 78, 4,4-Difluoro-N-[(2R,3R)-3-hydroxy-1-oxo-1-(1H-pyrazolo[4,3-b]pyridin-5-ylamino)butan-2-yl]-1-(4-methoxyphenyl)-N-methylcyclohexanecarboxamide], the IC50 (EP300) is reported as 259 nM, the IC50 (CREBBP) is reported as 323 nM and the GI50 (TE-8 cells) is reported as 4630 nM. It also gave a GI50 (LK2 cells) of 2150 nM and an IC50 (H3K27Ac) of 769 nM.

`[2H]C([2H])([2H])N(C(=O)C1(c2ccc(OC)cc2)CCC(F)(F)CC1)[C@H](CO)C(=O)Nc1ccc2[nH]ncc2n1` [Example 76, 4,4-Difluoro-N-[(2R)-3-hydroxy-1-oxo-1-(1H-pyrazolo[4,3-b]pyridin-5-ylamino)propan-2-yl]-1-(4-methoxyphenyl)-N—(^2H3)methylcyclohexanecarboxamide] was tested, and the IC50 (EP300) was 43 nM, the IC50 (CREBBP) was 92 nM and the GI50 (TE-8 cells) was 127 nM. The GI50 (LK2 cells) was 68.9 nM and the IC50 (H3K27Ac) was 12 nM.

`COc1ccc(C2(C(=O)N(C)[C@H](CO)C(=O)Nc3ccc4[nH]ncc4n3)CCC(F)(F)CC2)cc1` [Example 107, 4,4-Difluoro-N-[(2R)-3-hydroxy-1-oxo-1-(1H-pyrazolo[4,3-b]pyridin-5-ylamino)propan-2-yl]-1-(4-methoxyphenyl)-N-methylcyclohexanecarboxamide] gave an IC50 (EP300) of 49 nM, an IC50 (CREBBP) of 155 nM and a GI50 (TE-8 cells) of 195 nM. It also gave a GI50 (LK2 cells) of 99.9 nM and an IC50 (H3K27Ac) of 14 nM.

Work on `COc1ccc(C2(C(=O)N3C[C@H](F)C[C@@H]3C(=O)Nc3ccc4[nH]ccc4n3)CCCCC2)cc1` [Example 50] yielded an IC50 (EP300) of 20 nM, an IC50 (CREBBP) of 27 nM and a GI50 (TE-8 cells) of 288 nM. It also gave a GI50 (LK2 cells) of 166 nM and an IC50 (H3K27Ac) of 27 nM.

In the case of `COc1ccc(C2(C(=O)N3CS(=O)(=O)C[C@@H]3C(=O)Nc3ccc4[nH]ncc4n3)CCC(F)(F)CC2)cc1` [Example 68, (4S)-3-{[4,4-Difluoro-1-(4-methoxyphenyl)cyclohexyl]carbonyl}-N-(1H-pyrazolo[4,3-b]pyridin-5-yl)-1,3-thiazolidine-4-carboxamide 1,1-dioxide], the IC50 (EP300) is reported as 49 nM, the IC50 (CREBBP) is reported as 122 nM and the GI50 (TE-8 cells) is reported as 819 nM. For the same compound, the GI50 (LK2 cells) was 510 nM and the IC50 (H3K27Ac) was 42 nM.

For `COc1ccc(C2(C(=O)N3C[C@H](F)C[C@@H]3C(=O)Nc3cc4ccccn4n3)CCCCC2)cc1` [Example 70, (4R)-4-Fluoro-1-{[1-(4-methoxyphenyl)cyclohexyl]carbonyl}-N-pyrazolo[1,5-a]pyridin-2-yl-D-prolinamide], the IC50 (EP300) was 60 nM, the IC50 (CREBBP) was 52 nM and the GI50 (TE-8 cells) was 1070 nM. For the same compound, the GI50 (LK2 cells) was 729 nM and the IC50 (H3K27Ac) was 94 nM.

Work on `O=C(Nc1ccc2[nH]ncc2n1)[C@H]1C[C@@H](F)CN1C(=O)C1(c2ccc(O)cc2)CCCCC1` [Example 82, (4R)-4-Fluoro-1-{[1-(4-hydroxyphenyl)cyclohexyl]carbonyl}-N-1H-pyrazolo[4,3-b]pyridin-5-yl-D-prolinamide] yielded an IC50 (EP300) of 12 nM, an IC50 (CREBBP) of 21 nM and a GI50 (TE-8 cells) of 89.3 nM. The GI50 (LK2 cells) was 75.1 nM and the IC50 (H3K27Ac) was 13 nM.

For `COc1ccc(C2(C(=O)N3C[C@H](F)C[C@@H]3C(=O)Nc3ccc4[nH]ncc4n3)CCOCC2)cc1` [Example 45, (4R)-4-Fluoro-1-{[4-(4-methoxyphenyl)tetrahydro-2H-pyran-4-yl]carbonyl}-N-1H-pyrazolo[4,3-b]pyridin-5-yl-D-prolinamide], the IC50 (EP300) was 31 nM, the IC50 (CREBBP) was 128 nM and the GI50 (TE-8 cells) was 1350 nM. It also gave a GI50 (LK2 cells) of 733 nM and an IC50 (H3K27Ac) of 101 nM.

Work on `COc1ccc(C2(C(=O)N3C[C@H](F)C[C@@H]3C(=O)Nc3ccc4[nH]ccc4n3)CCC(F)(F)CC2)cc1` [Example 51] yielded an IC50 (EP300) of 41 nM, an IC50 (CREBBP) of 54 nM and a GI50 (TE-8 cells) of 916 nM. It also gave a GI50 (LK2 cells) of 351 nM and an IC50 (H3K27Ac) of 50 nM.

`CC(=O)c1ccc(C2(C(=O)N3C[C@H](F)C[C@@H]3C(=O)Nc3ccc4[nH]ncc4n3)CCCCC2)cc1` [Example 83, (4R)-1-{[1-(4-Acetylphenyl)cyclohexyl]carbonyl}-4-fluoro-N-1H-pyrazolo[4,3-b]pyridin-5-yl-D-prolinamide] showed an IC50 (EP300) of 33 nM, an IC50 (CREBBP) of 61 nM and a GI50 (TE-8 cells) of 151 nM. It also gave a GI50 (LK2 cells) of 203 nM and an IC50 (H3K27Ac) of 19 nM.

For `COCO[C@@H]1CN(C(=O)C2(c3ccc(OC)cc3)CCC(F)(F)CC2)[C@H]1C(=O)Nc1ccc2[nH]ncc2n1` [Example 96, (2R,3R)-1-{[4,4-Difluoro-1-(4-methoxyphenyl)cyclohexyl]carbonyl}-3-(methoxymethoxy)-N-(1H-pyrazolo[4,3-b]pyridin-5-yl)azetidine-2-carboxamide], the IC50 (EP300) was 2470 nM, the IC50 (CREBBP) was 2170 nM and the GI50 (TE-8 cells) was > 10000 nM. For the same compound, the GI50 (LK2 cells) was > 10000 nM and the IC50 (H3K27Ac) was > 1000 nM.

`CC(=O)Nc1ccc(C2(C(=O)N3C[C@H](F)C[C@@H]3C(=O)Nc3ccc4[nH]ncc4n3)CCC(F)(F)CC2)cc1` [Example 101, (4R)-1-({1-[4-(acetylamino)phenyl]-4,4-difluorocyclohexyl}carbonyl)-4-fluoro-N-1H-pyrazolo[4,3-b]pyridin-5-yl-D-prolinamide] gave an IC50 (EP300) of 120 nM, an IC50 (CREBBP) of 235 nM and a GI50 (TE-8 cells) of 1050 nM. The GI50 (LK2 cells) was 707 nM and the IC50 (H3K27Ac) was 240 nM.

In the case of `COc1ncc(C2(C(=O)N3C[C@H](F)C[C@@H]3C(=O)Nc3ccc4[nH]ncc4n3)CCCC2)cn1` [Example 64], the IC50 (EP300) is reported as 56 nM, the IC50 (CREBBP) is reported as 121 nM and the GI50 (TE-8 cells) is reported as 1270 nM. It also gave a GI50 (LK2 cells) of 643 nM and an IC50 (H3K27Ac) of 188 nM.

`COc1ccc(C(C)(C)C(=O)N2C[C@H](F)C[C@@H]2C(=O)Nc2ccc3[nH]ncc3n2)cc1` [Example 47] gave an IC50 (EP300) of 13 nM, an IC50 (CREBBP) of 59 nM and a GI50 (TE-8 cells) of 1140 nM. For the same compound, the GI50 (LK2 cells) was 585 nM and the IC50 (H3K27Ac) was 77 nM.

Compound `COc1ccc(C2(C(=O)N3C[C@H](F)[C@@H](O)[C@@H]3C(=O)Nc3ccc4[nH]ncc4n3)CCC(F)(F)CC2)cc1` [Example 38] has an IC50 (EP300) of 57 nM, an IC50 (CREBBP) of 109 nM and a GI50 (TE-8 cells) of 176 nM. The GI50 (LK2 cells) was 117 nM and the IC50 (H3K27Ac) was 38 nM.

With `COc1ccc(C2(C(=O)N(C)[C@@H](C(=O)Nc3ccc4[nH]ncc4n3)[C@H](C)O)CCC(F)(F)CC2)cc1` [Example 80, 4,4-Difluoro-N-[(2R,3S)-3-hydroxy-1-oxo-1-(1H-pyrazolo[4,3-b]pyridin-5-ylamino)butan-2-yl]-1-(4-methoxyphenyl)-N-methylcyclohexanecarboxamide] the IC50 (EP300) was 78 nM, the IC50 (CREBBP) was 91 nM and the GI50 (TE-8 cells) was 277 nM. For the same compound, the GI50 (LK2 cells) was 141 nM and the IC50 (H3K27Ac) was 17 nM.

`COC(=O)c1ccc(C2(C(=O)N3C[C@H](F)C[C@@H]3C(=O)Nc3ccc4[nH]ncc4n3)CCCCC2)cc1` [Example 81b, methyl 4-(1-{[(2R,4R)-4-Fluoro-2-(1H-pyrazolo[4,3-b]pyridin-5-ylcarbamoyl)pyrrolidin-1-yl]carbonyl}cyclohexyl)benzoate] was tested, and the IC50 (EP300) was 41 nM, the IC50 (CREBBP) was 64 nM and the GI50 (TE-8 cells) was 258 nM. The GI50 (LK2 cells) was 231 nM and the IC50 (H3K27Ac) was 16 nM.

`COc1ccc(C2(C(=O)N3CC[C@@H](O)[C@@H]3C(=O)Nc3ccc4[nH]ccc4n3)CCC(F)(F)CC2)cc1` [Example 74, (3R)-1-{[4,4-Difluoro-1-(4-methoxyphenyl)cyclohexyl]carbonyl}-3-hydroxy-N-1H-pyrrolo[3,2-b]pyridin-5-yl-D-prolinamide] gave an IC50 (EP300) of 58 nM, an IC50 (CREBBP) of 86 nM and a GI50 (TE-8 cells) of 599 nM. It also gave a GI50 (LK2 cells) of 271 nM and an IC50 (H3K27Ac) of 86 nM.

In the case of `COc1ccc(C2(C(=O)N3C[C@H](F)C[C@@H]3C(=O)Nc3ccc4[nH]c(C)cc4n3)CCC(F)(F)CC2)cc1` [Example 97, (4R)-1-{[4,4-Difluoro-1-(4-methoxyphenyl)cyclohexyl]carbonyl}-4-fluoro-N-(2-methyl-1H-pyrrolo[3,2-b]pyridin-5-yl)-D-prolinamide], the IC50 (EP300) is reported as 70 nM, the IC50 (CREBBP) is reported as 123 nM and the GI50 (TE-8 cells) is reported as 1180 nM. The GI50 (LK2 cells) was 854 nM and the IC50 (H3K27Ac) was 218 nM.

Compound `O=C(Nc1ccc2[nH]ncc2n1)[C@H]1C[C@@H](F)CN1C(=O)C1(c2ccc(OCF)cc2)CCC(F)(F)CC1` [Example 48] has an IC50 (EP300) of 14 nM, an IC50 (CREBBP) of 34 nM and a GI50 (TE-8 cells) of 135 nM. It also gave a GI50 (LK2 cells) of 105 nM and an IC50 (H3K27Ac) of 25 nM.
